Test results from US11191773B2, “Methods of treatment for bacterial infections” (President and Fellows of Harvard College, priority 2017, dated 2021).

System: A. baumannii (ATCC: 19606) mutant that is novobiocin and polymyxin-resistant
Assay: Checkerboard microdilution assay, polymyxin-resistant strain
Assay type: cell-based
Conditions: 37° C. for 24 h
Protocol: The effect of novobiocin/polymyxin combination was further assessed in polymyxin-resistant strains using checkerboard microdilution assays. In these assays, polymyxin-resistant strains (E. coli (clinical isolate from Brigham and Women's Hospital); A. baumannii (ATCC: 19606) mutant that is novobiocin and polymyxin-resistant; and K. pneumoniae (clinical isolate from Brigham and Women's Hospital)) were grown at 37° C. for 24 h.

CO[C@@H]1[C@@H](OC(N)=O)[C@@H](O)[C@H](Oc2ccc3c(O)c(NC(=O)c4ccc(O)c(CC=C(C)C)c4)c(=O)oc3c2C)OC1(C)C [Novobiocin, novobiocin]
synergy with polymyxin B: synergizes with polymyxin B
